The viability is a read-out of living cells in per cent, often relative to untreated cells.

This experiment deals with cells expressing pluripotency markers derived from human embryonic stem cells. Kind of experiment: MTS viability (toxicity) assay of cells expressing pluripotency markers. The experiment is classed as cell-based. Also noted: Raw data (duplicate), first replicate / Average: unit not given here. To be noted: for viability at 10 µM: Homo sapiens, Embryonic stem cell; for viability at 10 µM / % Control: viability of cells expressing pluripotency markers, relative to control; for Raw data (duplicate), first replicate / Raw data (duplicate), second replicate: MTS viability assay raw reading; for Raw data (duplicate), first replicate: replicate 1; for Raw data (duplicate), second replicate: replicate 2; for Average: average of duplicate MTS raw readings. In short, it runs like this:
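Cells expressing pluripotency markers, derived from human embryonic stem cells, were plated at 20,000 cells per well in 96-well clear-bottom plates and cultured overnight. Test compounds were applied in assay medium on days 1 and 2, and compound-free medium on days 3 and 4. On day 4, MTS was added and optical density at 490 nm was read in duplicate.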

Where “and” joins values, the source holds several entries; their conditions need not be identical. Equal values may be shown once.

For the compound `O=C1NC(=O)C(c2cn(CCCO)c3ncccc23)=C1c1ccccc1C(F)(F)F` [Compound 16, 3-[1-(3-Hydroxypropyl)-1H-pyrrolo[2,3-b]pyridin-3-yl]-4-[2-(trifluoromethyl)phenyl]-1H-pyrrole-2,5-dione], the viability at 10 µM is 73.7%; the “Raw data (duplicate), first replicate” value is listed as 0.641; the “Raw data (duplicate), second replicate” value turned out to be 0.601; the Average turned out to be 0.621.
The matching figures for `O=C1NC(=O)C(c2cn(CCCO)c3ncccc23)=C1c1cccs1` [Compound 17, 3-[1-(3-Hydroxypropyl)-1H-pyrrolo[2,3-b]pyridin-3-yl]-4-thiophen-2-yl-1H-pyrrole-2,5-dione]: 99.1%, 0.803, 0.782 and 0.792.
In the case of `O=C1NC(=O)C(c2cn(CCCO)c3ncccc23)=C1c1cc(Cl)sc1Cl` [Compound 18, 3-(2,5-Dichlorothiophen-3-yl)-4-[1-(3-hydroxypropyl)-1H-pyrrolo[2,3-b]pyridin-3-yl]-1H-pyrrole-2,5-dione], the viability at 10 µM was found to be 69.9%; the “Raw data (duplicate), first replicate” value was 0.637; the “Raw data (duplicate), second replicate” value is recorded as 0.554; the Average is 0.595.
In the same order, the values of `COCCCn1cc(C2=C(c3ccccc3O)C(=O)NC2=O)c2cccnc21` [Compound 22, 3-(2-Hydroxyphenyl)-4-{1-[3-(methyloxy)propyl]-1H-pyrrolo[2,3-b]pyridin-3-yl}-1H-pyrrole-2,5-dione] are 108%, 0.900, 0.877 and 0.888.
On to `COc1ccccc1C1=C(c2cn(-c3ccc4ccccc4c3)c3ncccc23)C(=O)NC1=O` [Compound 23, 3-[2-(Methyloxy)phenyl]-4-(1-naphthalen-2-yl-1H-pyrrolo[2,3-b]pyridin-3-yl)-1H-pyrrole-2,5-dione], for which the viability at 10 µM was found to be 102%; the “Raw data (duplicate), first replicate” value is reported as 0.882; the “Raw data (duplicate), second replicate” value was 0.748; the Average is 0.815.
As for `COc1ccccc1C1=C(c2cn(CCCNC(=O)OC(C)(C)C)c3ncccc23)C(=O)NC1=O` [Compound 26, 1,1-Dimethylethyl [3-(3-{4-[2-(methyloxy)phenyl]-2,5-dioxo-2,5-dihydro-1H-pyrrol-3-yl}-1H-pyrrolo[2,3-b]pyridin-1-yl)propyl]carbamate], the viability at 10 µM worked out at 76.4%; the “Raw data (duplicate), first replicate” value was 0.568; the “Raw data (duplicate), second replicate” value is reported as 0.709; the Average was 0.639.
On to `COc1ccccc1C1=C(c2cn(CCCNC(C)=O)c3ncccc23)C(=O)NC1=O` [Compound 27, N-[3-(3-{4-[2-(Methyloxy)phenyl]-2,5-dioxo-2,5-dihydro-1H-pyrrol-3-yl}-1H-pyrrolo[2,3-b]pyridin-1-yl)propyl]acetamide], for which the viability at 10 µM worked out at 7.2%; the “Raw data (duplicate), first replicate” value came to 0.160; the “Raw data (duplicate), second replicate” value is 0.186; the Average came out at 0.173.
Turning to `O=C1NC(=O)C2=C1c1cn(c3ccccc13)CCOCCOCCOCCn1cc2c2ccccc21` [Compound 163, 6,7,9,10,12,13,15,16-Octahydro-23H-5,26:17,22-di(metheno)dibenzo[k,q]pyrrolo[3,4-n][1,4,7,10,19]trioxadiazacyclohenicosine-23,25(24H)-dione], the “Raw data (duplicate), first replicate” value amounted to 0.678; the “Raw data (duplicate), second replicate” value is 0.661; the Average is recorded as 0.670; the “% Control” value is recorded as 80.8%.
In the case of `O=C1NC(=O)C2=C1c1cn(c3ccccc13)CCOCCOCCn1cc2c2ccccc21` [Compound 164, 6,7,9,10,12,13-Hexahydro-20H-5,23:14,19-di(metheno)dibenzo[h,n]pyrrolo[3,4-k][1,4,7,16]dioxadiazacyclooctadecine-20,22(21H)-dione], the “Raw data (duplicate), first replicate” value was determined as 0.603; the “Raw data (duplicate), second replicate” value worked out at 0.584; the Average was determined as 0.593; the “% Control” value turned out to be 69.4%.
With `O=C1NC(=O)C2=C1c1cn(c3ccccc13)CCOCCOCCOCCOCCn1cc2c2ccccc21` [Compound 165, 10,11,13,14,16,17,19,20,22,23-Decahydro-1H-9,4:24,29-di(metheno)dibenzo[n,t]pyrrolo[3,4-q][1,4,7,10,13,22]tetraoxadiazacyclotetracosine-1,3(2H)-dione], the “Raw data (duplicate), first replicate” value was 0.690; the “Raw data (duplicate), second replicate” value was 0.674; the Average was 0.682; the “% Control” value is reported as 83.3%.
With `O=C(Nc1ccc(C(=O)N2CC3CSCCN3Cc3ccccc32)c(Cl)c1)c1cc(Cl)cc(Cl)c1` (stereo not shown) [Compound 166, 3,5-Dichloro-N-[3-chloro-4-(3,4,12,12a-tetrahydro-1H-[1,4]thiazino[3,4-c][1,4]benzodiazepin-11(6H)-ylcarbonyl)phenyl]benzamide], the viability at 10 µM came out at 74.8%; the “Raw data (duplicate), first replicate” value came to 0.615; the “Raw data (duplicate), second replicate” value stood at 0.635; the Average came out at 0.625.
With `O=C1NC(=O)C2=C1c1cn(c3ncccc13)CCOCCOCCOCCOCCOCCn1cc2c2cccnc21` [Compound 168, 10,11,13,14,16,17,19,20,22,23,25,26-Dodecahydro-1H-9,4:27,32-di(metheno)dipyrido[2,3-q:3′,2′-w]pyrrolo[3,4-t][1,4,7,10,13,16,25]pentaoxadiazacycloheptacosine-1,3(2H)-dione], the “Raw data (duplicate), first replicate” value worked out at 0.610; the “Raw data (duplicate), second replicate” value stood at 0.628; the Average stood at 0.619; the “% Control” value was 73.9%.
On to `O=C1NC(=O)C2=C1c1cn(c3ncccc13)CCOCCOCCOCCOCCn1cc2c2cccnc21` [Compound 169], for which the “Raw data (duplicate), first replicate” value was 0.681 and 0.636; the “Raw data (duplicate), second replicate” value was 0.698 and 0.621; the Average was 0.689 and 0.629; the “% Control” value is 84.5% and 75.4%.
Consider `CN(C)CCCn1cc(C2=C(c3cccc4ccccc34)C(=O)NC2=O)c2cccnc21` [Compound 175, 3-{1-[3-(Dimethylamino)propyl]-1H-pyrrolo[2,3-b]pyridin-3-yl}-4-naphthalen-1-yl-1H-pyrrole-2,5-dione], for which the viability at 10 µM worked out at 3%; the “Raw data (duplicate), first replicate” value is given as 0.135; the “Raw data (duplicate), second replicate” value was determined as 0.158; the Average is on record as 0.146.
As to `O=C1NC(=O)C2=C1c1cn(c3ncccc13)CCOCCOCCn1cc2c2cccnc21` [Compound 180, 6,7,9,10,12,13-Hexahydro-20H-5,23:14,19-di(metheno)dipyrido[2,3-h:3′,2′-n]pyrrolo[3,4-k][1,4,7,16]dioxadiazacyclooctadecine-20,22(21H)-dione], the “Raw data (duplicate), first replicate” value is 0.141 and 0.611; the “Raw data (duplicate), second replicate” value is 0.128 and 0.628.

The values above are taken from patent US20130337564A1, “Treatment of Pluripotent Cells” (Janssen Biotech, Inc., priority 2012, published 2013).
